System: HCV replication
Assay: HCV replicon assay (luciferase), ET (Huh-lucubineo-ET) cell line
Format: cell-based
Conditions: Hepatitis C virus; tested at 10 μM; ET (Huh-lucubineo-ET) replicon cells; luciferase activity 48-72 hours; relative to no compound control
Experimental: A cell line, ET (Huh-lucubineo-ET) was used for screening of compounds of the present invention for inhibiting HCV replication. The ET cell line was stably transfected with RNA transcripts harboring a I389luc-ubi-neo/NS3-3′/ET; replicon with firefly luciferase-ubiquitin-neomycin phosphotransferase fusion protein and EMCV-IRES driven NS3-5B polyprotein containing the cell culture adaptive mutations (E1202G; T1280I; K1846T) (Krieger at al, 2001 and unpublished). The ET cells were grown in DMEM (Dulbeco's Modified Eagle's Medium), supplemented with 10% fetal calf serum, 2 mM Glutamine, Penicillin (100 IU/mL)/Streptomycin (100 μg/mL), 1× nonessential amino acids, and 250 μg/mL G418 (“Geneticin”). They were all available through Life Technologies (Bethesda, Md.). The cells were plated at 0.5-1.0×10^4 cells/well in the 96 well plates and incubated for 24 hrs before adding testing compounds. Then the compounds were added to the cells to achieve a final concentration of 0.1 nM to 50 μM and a final DMSO concentration of 0.5%. Luciferase activity were measured 48-72 hours later by adding a lysis buffer and the substrate (Catalog number Glo-lysis buffer E2661 and Bright-Glo luciferase system E2620 Promega, Madison, Wis.). Cells should not be too confluent during the assay. Percent inhibition of replication was plotted relative to no compound control. Under the same condition, cytotoxicity of the compounds was determined using cell proliferation reagent, WST-1 (Roche, Germany). The compounds showing antiviral activities, but no significant cytotoxicities were chosen to determine EC50 and TC50. For these determinations, a 10 point 2-fold serial dilution for each compound was used, which spans a concentration range of 1000 fold. EC50 and similarly TC50 values were calculated by fitting % inhibition at each concentration to the following equation:
% inhibition=100%/[(IC50/[I])^b+1]
where b is Hill's coefficient.
In some preferred embodiments compounds of Formula I will have a % inhibition of at least 20% when tested at 10 μM. In other embodiments the compounds of Formula I will have a % inhibition of at least 50% when tested at 10 μM.

SMILES | inhibition at 10 µM [%]
O=C(OCc1ccccc1)N1CCC[C@H]1c1nc2ccc(-c3ccc4ccccc4c3)cc2[nH]1 [Compound 4011, (S)-2-(6-Naphthalen-2-yl-1H-benzoimidazol-2-yl)-pyrrolidine-1-carboxylic acid benzyl ester] | 87
O=C(Cc1cccc(-c2ccc3nc([C@@H]4CCCN4C(=O)OCc4ccccc4)[nH]c3c2)c1)NC1CC1 [Compound 4003, (S)-2-[6-(3-Cyclopropylcarbamoylmethyl-phenyl)-1H-benzoimidazol-2-yl]-pyrrolidine-1-carboxylic acid benzyl ester] | 97
NC(=O)Nc1ccc(-c2ccc3nc([C@@H]4CCCN4C(=O)OCc4ccccc4)[nH]c3c2)cc1 [Compound 4034, (S)-2-[6-(4-Ureido-phenyl)-1H-benzoimidazol-2-yl]-pyrrolidine-1-carboxylic acid benzyl ester] | 24.1
O=C(Cc1ccc(-c2ccc([C@@H]3CCCN3C(=O)OCc3ccccc3)cc2)cc1)NC1CC1 (stereo in doubt) [Compound 4002, 2-(4′-Cyclopropylcarbamoylmethyl-biphenyl-4-yl)-pyrrolidine-1-carboxylic acid benzyl ester] | 33.3
O=C(OCc1ccccc1)N1CCC[C@H]1c1nc2ccc(-c3cccc(O)c3)cc2[nH]1 [Compound 4054, (S)-2-[6-(3-Hydroxy-phenyl)-1H-benzoimidazol-2-yl]-pyrrolidine-1-carboxylic acid benzyl ester] | 99.3

— patent US20080193411A1, “Anti-viral Compounds” (Genelabs Technologies, Inc., priority 2006, published 2008)
